Data reported in US9296720B2, “Carboxamide-substituted heteroaryl-pyrazoles and the use thereof” (AiCuris GmbH & Co. KG, priority 2011, dated 2016).
Read-outs that look alike come from different tables or passages of the source.

What was measured:
Format in all cases: cell-based
HIV-1NL4-3 Wild Type = assay: Luminescence reduction assay, MT4 cells infected with HIV-1NL4-3 luciferase reporter virus, wild type; settings: 2% FCS
Text: (§1) For this assay, HIV-1NL4-3 reporter viruses are used, which carry the luciferase164 gene (lu164) instead of the nef gene. The viruses are generated by transfection of 293T cells with the corresponding proviral pNL4-3 plasmid (Lipofectamine Reagent, Invitrogen, Karlsruhe, Germany). Starting from the proviral plasmid-DNA, viruses with defined resistance mutations in the reverse transcriptase gene are produced with the “QuikChange II XL Site-Directed Mutagenesis Kit” (Stratagene, Cedar Creek, Tex., USA). Among other things, the following mutations are generated: A98G, A98G-K103N-V108I, A98S, F227C, F227L, G190A, G190S, K101E, K101Q-K103N, K103N, K103N-F227L, K103N-G190A, K103N-G190S, K103N-M230L, K103N-N348I, K103N-P225H, K103N-V108I, K103N-V108I-P225H, K103N-V179F-Y181C, K103N-Y181C, K103N-Y181C-G190A, L100I, L100I-K103N, L100I-K103N-V179I-Y181C, L100I-K103N-Y181C, L234I, N348I, P225H, P236L, V106A, V106A-E138K, V106A-F227C, V106A-F227L, V106I, V106I-Y188L, V106M, V108I, V179F-Y181C, V179I, V179I-Y181C, Y181C, Y181C-G190A, Y181C-M230L, Y181I, Y188L. MT4 cells infected with these reporter viruses (NIH AIDS Research and Reference Reagent Program) secrete luciferase into the medium, which makes possible the luminometric quantification of the virus replication.
(§2) For the batch of a 96-well MTP, 3 million MT4 cells are pelletized, suspended in 1 ml of RPMI 1640 medium without phenol red (Invitrogen, Karlsruhe, Germany)/10% FCS/2 mmol of L-glutamine/1% Pen/Strep (Invitrogen, Karlsruhe, Germany), and incubated together with a suitable amount of the corresponding HIV-1NL4-3 reporter virus for 2 hours at 37° C. (pellet infection). Non-adsorbed viruses are then washed out with PBS, the infected cells are pelletized again, and suspended in 8 ml of RPM 11640 medium without phenol red/2% or 10% FCS/2 mmol of L-glutamine/1% Pen/Strep. Therefrom, 80 μl per well is pipetted into a white 96-well MTP in 20 μl of test substance in a suitable dilution. In order to avoid boundary effects, the edge wells of the MTP are not used for substance dilutions. The second vertical row of the MTP contains only infected cells (virus control), and the eleventh vertical row contains only non-infected cells (cell control) in each case in RPMI 1640 medium without phenol red/2% or 10% FCS/2 mmol of L-glutamine/1% Pen/Strep. The other wells of the MTP contain the compounds according to the invention in different concentrations starting from the third vertical row, from which dilution of the test substances is carried out 3^7 times in three steps up to the tenth vertical row. The test substances are dissolved in DMSO, whereby the DMSO final concentration in the test batch is ultimately 1%. The test batches are incubated for 5 days at 37° C./5% CO2, and are luminometrically evaluated after the addition of 15 μl of Lu164-buffer (65 mmol of NaCl, 300 mmol of MES, pH 5.8, 5 mmol of glutathione and 1:200 coelenterazine (5 mg/ml in 30 μM of glutathione/DMSO) (P.J.K. GmbH, Kleinblittersdorf, Germany)). In the virus control, the resulting values are in the range of 1 million RLUs (relative light units), and in the cell control, the resulting values are 300 to 400 RLUs. The EC50 values of the test substances are determined as the concentration of the treated infected cells, in which the virus replication measured in RLUs is 50% of the untreated infected cells.

HIV-1LAI Wild Type = assay: AlamarBlue viability assay, HIV-1LAI-infected MT4 cells; settings: 10% FCS
Procedure: For the batch of a 96-well MTP, 3 million PBLs are pelletized, suspended in 1 ml of RPMI 1640 medium/10% FCS/2 mmol of L-glutamine/1% Pen/Strep, and incubated together with a suitable amount of HIV-1LA1 (NIH AIDS Research & Reference Reagent Program, Germantown, USA) for 2 hours at 37° C. (pellet infection). Non-adsorbed viruses are then washed out with PBS, the infected cells are pelletized again, and suspended in 18 ml of RPMI 1640 medium/10% FCS/2 mmol of L-glutamine/1% Pen/Strep/interleukin-2 (40 U/ml). Therefrom, 180 μl per well is pipetted into a white 96-well MTP in 20 μl of test substance in a suitable dilution. As an alternative, after preparation of the substance dilutions, the HIV is added by pipetting in the MTP together with the cells and is no longer washed out (supernatant infection). In order to avoid boundary effects, the edge wells of the MTP are not used for substance dilutions. The second vertical row of the MTP contains only infected cells (virus control), and the eleventh vertical row contains only non-infected cells (cell control) in each case in RPMI 1640 medium/10% FCS/2 mmol of L-glutamine/1% Pen/Strep/interleukin-2 (40 U/ml). The other wells of the MTP contain the compounds according to the invention in different concentrations starting from the third vertical row, from which dilution of the test substances is carried out 3^7 times in three steps up to the tenth vertical row. The test substances are dissolved in DMSO, whereby the DMSO final concentration in the test batch is ultimately 1%. The test batches are incubated at 37° C./5% CO2. After 5 and 7 days, in each case 50 μl of cell-free supernatant is drawn off from each well in order to determine the amount of p24 contained by means of p24 ELISA (HIV-1 p24^CA Antigen Capture Assay Kit, NCI-Frederick Cancer Research and Development Center, Frederick, USA). From the resulting values of the photometric analysis (450/620 nm), the EC50 values of the test substances are determined as the concentration of the treated infected cells, in which the amount of p24 is 50% of the untreated infected cells.
As an alternative, MT4 cells are used for testing test substances instead of PBLs. HIV-1LA1-infected MT4 cells (MOI 0.01, supernatant infection) are incubated according to the above-described pattern in RPMI 1640 medium with 2% or 10% FCS/2 mmol of L-glutamine/1% Pen/Strep in the presence of test substances for 5 days at 37° C./5% CO2 (20 μl of substance dilution and 80 μl of cells/virus per well). Then, 10 μl of AlamarBlue (Invitrogen, Karlsruhe, Germany) is added to each well, and MTPs are incubated for 3 hours at 37° C., before the fluorimetric analysis is done (544/590 nm). The resulting values are approximately 30,000 in the case of untreated, non-infected cells, and approximately 6,000 in the case of untreated infected cells. In the low concentration range, the EC50 values of the test substances are determined as the concentration of the treated infected cells, in which the fluorescence is 50% of the untreated non-infected cells (in each case relative to the values of the untreated infected cells). In addition, in the high concentration range, the CC50 values of the test substances are determined as the concentration of the treated infected cells, in which the fluorescence is 50% of the untreated, non-infected cells (in each case relative to the values of the untreated infected cells).

HIV-1NL4-3 K103N-Y181C = assay: Luminescence reduction assay, MT4 cells infected with HIV-1NL4-3 luciferase reporter virus, RT mutant K103N-Y181C
Text: as §1, §2

[1] = read-out: EC50 (μM) MT4 Cells HIV-1NL4-3 K103N-Y181C 2% FCS, MT4 cells, HIV-1NL4-3 K103N-Y181C, 2% FCS
[2] = Human immunodeficiency virus 1, MT4, MT4 cells
[3] = Human immunodeficiency virus 1, MT4, read-out: EC50 (μM) MT4 Cells HIV-1NL4-3 K103N-Y181C 2% FCS, MT4 cells, HIV-1NL4-3 K103N-Y181C, 2% FCS

Row | SMILES | EC50 (HIV-1NL4-3 Wild Type; MT4 cells) [µM] | EC50 (HIV-1LAI Wild Type; MT4 cells) [µM] | EC50 (HIV-1NL4-3 K103N-Y181C; [1]) [µM] | EC50 (HIV-1NL4-3 Wild Type; [2]) [µM] | EC50 (HIV-1LAI Wild Type; [2]) [µM] | EC50 (HIV-1NL4-3 K103N-Y181C; [3]) [µM]
1 | O=C(c1cc(-c2cc(F)cc(Cl)c2)n(-c2cccnc2)n1)N1CC[S+]([O-])C1 (racemic) [Example 6, [5-(3-Chloro-5-fluorophenyl)-1-(pyridin-3-yl)-1H-pyrazol-3-yl](1-oxido-1,3-thiazolidin-3-yl)methanone] | 0.054 | 0.201 | 1.36 | – | – | –
2 | O=C(c1cc(-c2cc(F)cc(Cl)c2)n(-c2cccnc2)n1)N1CC[S+]([O-])C1 (racemic) [Example 6-1, [5-(3-Chloro-5-fluorophenyl)-1-(pyridin-3-yl)-1H-pyrazol-3-yl](1-oxido-1,3-thiazolidin-3-yl)methanone] | 0.255 | 1.49 | > 3.3 | – | – | –
3 | O=C(c1cc(-c2cc(F)cc(Cl)c2)n(-c2cccnc2)n1)N1CC[S+]([O-])C1 (racemic) [Example 6-2, [5-(3-Chloro-5-fluorophenyl)-1-(pyridin-3-yl)-1H-pyrazol-3-yl](1-oxido-1,3-thiazolidin-3-yl)methanone] | 0.007 | 0.112 | 0.986 | – | – | –
4 | O=C(c1cc(-c2cc(Br)cc(OC(F)(F)F)c2)n(-c2cccnc2)n1)N1CC[S+]([O-])C1 (racemic) [Example 31, {5-[3-Bromo-5-(trifluoromethoxy)phenyl]-1-(pyridin-3-yl)-1H-pyrazol-3-yl}(1-oxido-1,3-thiazolidin-3-yl)methanone] | 0.017 | 0.18 | 0.045 | – | – | –
5 | O=C(c1cc(-c2cc(Br)cc(OC(F)(F)F)c2)n(-c2cccnc2)n1)N1CC[S+]([O-])C1 (racemic) [Example 31-1, {5-[3-Bromo-5-(trifluoromethoxy)phenyl]-1-(pyridin-3-yl)-1H-pyrazol-3-yl}(1-oxido-1,3-thiazolidin-3-yl)methanone] | 0.084 | 0.82 | 0.981 | – | – | –
6 | O=C(c1cc(-c2cc(Br)cc(OC(F)(F)F)c2)n(-c2cccnc2)n1)N1CC[S+]([O-])C1 (racemic) [Example 31-2, {5-[3-Bromo-5-(trifluoromethoxy)phenyl]-1-(pyridin-3-yl)-1H-pyrazol-3-yl}(1-oxido-1,3-thiazolidin-3-yl)methanone] | 0.01 | 0.336 | 0.041 | – | – | –
7 | O=C(c1cc(-c2cc(Br)cc(OC(F)(F)F)c2)n(-c2ccc(Cl)nc2)n1)N1CC[S+]([O-])C1 (racemic) [Example 37, {5-[3-Bromo-5-(trifluoromethoxy)phenyl]-1-(6-chloropyridin-3-yl)-1H-pyrazol-3-yl}(1-oxido-1,3-thiazolidin-3-yl)methanone] | – | – | – | 0.004 | 2.32 | 0.005
8 | O=C(c1cc(-c2cc(F)cc(OC(F)(F)F)c2)n(-c2cccnc2)n1)N1CC[S+]([O-])C1 (racemic) [Example 60, {5-[3-Fluoro-5-(trifluoromethoxy)phenyl]-1-(pyridin-3-yl)-1H-pyrazol-3-yl}(1-oxido-1,3-thiazolidin-3-yl)methanone] | 0.077 | 0.997 | 0.621 | – | – | –
9 | O=C(c1cc(-c2cc(F)cc(OC(F)(F)F)c2)n(-c2cccnc2)n1)N1CC[S+]([O-])C1 (racemic) [Example 60-1, {5-[3-Fluoro-5-(trifluoromethoxy)phenyl]-1-(pyridin-3-yl)-1H-pyrazol-3-yl}(1-oxido-1,3-thiazolidin-3-yl)methanone] | 0.431 | > 3.3 | > 3.3 | – | – | –
10 | O=C(c1cc(-c2cc(F)cc(OC(F)(F)F)c2)n(-c2cccnc2)n1)N1CC[S+]([O-])C1 (racemic) [Example 60-2, {5-[3-Fluoro-5-(trifluoromethoxy)phenyl]-1-(pyridin-3-yl)-1H-pyrazol-3-yl}(1-oxido-1,3-thiazolidin-3-yl)methanone] | 0.084 | 0.797 | 0.446 | – | – | –
11 | O=C(c1cc(-c2cc(F)cc(OCC(F)(F)F)c2)n(-c2cccnc2)n1)N1CC[S+]([O-])C1 (racemic) [Example 73, {5-[3-Fluoro-5-(2,2,2-trifluoroethoxy)phenyl]-1-(pyridin-3-yl)-1H-pyrazol-3-yl}(1-oxido-1,3-thiazolidin-3-yl)methanone] | – | – | – | 0.018 | 0.243 | 0.951
12 | O=C(c1cc(-c2cc(Cl)cc(OC(F)(F)F)c2)n(-c2cccnc2)n1)N1CC[S+]([O-])C1 (racemic) [Example 78, {5-[3-Chloro-5-(trifluoromethoxy)phenyl]-1-(pyridin-3-yl)-1H-pyrazol-3-yl}(1-oxido-1,3-thiazolidin-3-yl)methanone] | – | – | – | 0.078 | 0.367 | 0.277
